In PubChem BioAssay (NCI):
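Step 1: Grow cells in 96-well plates. Step 2: Expose to compound for 48 hours at 5 concentrations. Step 3: Interpolate endpoints linearly; if unreached, use highest concentration. GI50 = concentration required for 50% inhibition of growth. The concentration for full growth arrest is given as TGI.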

Columns and labels:
Assay in all cases: NCI anticancer screen, dose series, 48 h
[1] = test system: MALME-3M melanoma
[2] = test system: SF-295 CNS
[3] = test system: UACC-257 melanoma
[4] = test system: EKVX NSCLC
[5] = test system: SR leukemia
[6] = test system: A549 NSCLC
[7] = test system: HL-60(TB) leukemia
[8] = test system: SK-MEL-5 melanoma
[9] = test system: HOP-62 NSCLC
[10] = test system: HT29 colon
[11] = test system: 786-0 renal
[12] = test system: HCT-116 colon
[13] = test system: KM12 colon
[14] = test system: T-47D breast
[15] = test system: SN12C renal
[16] = test system: LOX IMVI melanoma
[17] = test system: PC-3 prostate
[18] = test system: M14 melanoma
[19] = test system: COLO 205 colon
[20] = test system: NCI/ADR-RES ovarian
[21] = test system: HCT-15 colon
[22] = test system: A498 renal
[23] = test system: NCI-H23 lung
[24] = test system: TK-10 renal
[25] = test system: ACHN renal
[26] = test system: NCI-H522 lung
[27] = test system: MDA-MB-435
[28] = test system: SNB-75 CNS
[29] = test system: SK-OV-3 ovarian
[30] = test system: OVCAR-3 ovarian
[31] = test system: HS 578T breast
[32] = test system: CAKI-1 renal
[33] = test system: RPMI-8226 leukemia
[34] = test system: U251 CNS
[35] = test system: SF-539 CNS
[36] = test system: UACC-62 melanoma
[37] = test system: K-562 leukemia
[38] = test system: SK-MEL-2 melanoma
[39] = test system: RXF 393 renal
[40] = test system: MCF7 breast
[41] = test system: BT-549 breast
[42] = test system: CCRF-CEM leukemia
[43] = test system: UO-31 renal
[44] = test system: SF-268 CNS
[45] = test system: SNB-19 CNS
[46] = test system: OVCAR-5 ovarian
[47] = test system: NCI-H460 lung
[48] = test system: HCC-2998 colon
[49] = test system: HOP-92 NSCLC
[50] = test system: SK-MEL-28 melanoma
[51] = test system: OVCAR-8 ovarian
[52] = test system: MDA-MB-231 breast
[53] = test system: NCI-H226 lung
[54] = test system: OVCAR-4 ovarian
[55] = test system: DU-145 prostate
[56] = test system: IGROV1 ovarian
[57] = test system: SW-620 colon
[58] = test system: MOLT-4 leukemia

Work on `CCCCCCCCCCCCCCCCNC(=O)OC(C)C` yielded a GI50 [1] of 2.89 µM, a TGI [1] of 9.24 µM and a GI50 [2] of 2.11 µM. For the same compound, the TGI [2] was 5.81 µM, the GI50 [3] was 13.2 µM and the TGI [3] was 28.8 µM. It also gave a GI50 [4] of 2.35 µM, a TGI [4] of 6.44 µM and a GI50 [5] of 1.56 µM. For the same compound, the TGI [5] was 5.01 µM, the GI50 [6] was 1.95 µM and the TGI [6] was 3.82 µM. For the same compound, the GI50 [7] was 2.01 µM, the TGI [7] was 5.56 µM and the GI50 [8] was 12.3 µM. For the same compound, the TGI [8] was 27.8 µM, the GI50 [9] was 5.11 µM and the TGI [9] was 11.2 µM. For the same compound, the GI50 [10] was 1.65 µM, the TGI [10] was 3.12 µM and the GI50 [11] was 9.38 µM. The TGI [11] was 29.4 µM, the GI50 [12] was 1.96 µM and the TGI [12] was 4.17 µM. It also gave a GI50 [13] of 1.83 µM, a TGI [13] of 3.5 µM and a GI50 [14] of 3.79 µM. For the same compound, the TGI [14] was 12.6 µM, the GI50 [15] was 4.53 µM and the TGI [15] was 17 µM. The GI50 [16] was 1.61 µM, the TGI [16] was 2.97 µM and the GI50 [17] was 2.45 µM. The TGI [17] was 7.53 µM, the GI50 [18] was 3.5 µM and the TGI [18] was 14.4 µM. The GI50 [19] was 1.95 µM, the TGI [19] was 3.61 µM and the GI50 [20] was 3.34 µM. The TGI [20] was 13.6 µM, the GI50 [21] was 2.35 µM and the TGI [21] was 6.79 µM. For the same compound, the GI50 [22] was 0.37 µM, the TGI [22] was 5.95 µM and the GI50 [23] was 3.04 µM. For the same compound, the TGI [23] was 10.3 µM, the GI50 [24] was 2.09 µM and the TGI [24] was 4.48 µM. For the same compound, the GI50 [25] was 2.16 µM, the TGI [25] was 5.24 µM and the GI50 [26] was 2.01 µM. The TGI [26] was 4.62 µM, the GI50 [27] was 2.55 µM and the TGI [27] was 6.93 µM. The GI50 [28] was 5.74 µM, the TGI [28] was 18.1 µM and the GI50 [29] was 5.7 µM. For the same compound, the TGI [29] was 14.3 µM, the GI50 [30] was 1.99 µM and the TGI [30] was 3.89 µM. It also gave a GI50 [31] of 2.19 µM, a TGI [31] of 16.5 µM and a GI50 [32] of 2.03 µM. For the same compound, the TGI [32] was 4.75 µM, the GI50 [33] was 5.22 µM and the TGI [33] was 40.8 µM. It also gave a GI50 [34] of 1.96 µM, a TGI [34] of 3.67 µM and a GI50 [35] of 5.15 µM. The TGI [35] was 12.7 µM, the GI50 [36] was 6.04 µM and the TGI [36] was 19 µM. For the same compound, the GI50 [37] was 2.14 µM, the TGI [37] was 5.86 µM and the GI50 [38] was 2.43 µM. For the same compound, the TGI [38] was 6.15 µM, the GI50 [39] was 8.07 µM and the TGI [39] was 26.6 µM. It also gave a GI50 [40] of 1.88 µM, a TGI [40] of 3.53 µM and a GI50 [41] of 21.9 µM. For the same compound, the TGI [41] was 55.9 µM, the GI50 [42] was 2.31 µM and the TGI [42] was 6.2 µM. It also gave a GI50 [43] of 1.54 µM, a TGI [43] of 3.38 µM and a GI50 [44] of 2.73 µM. It also gave a TGI [44] of 8 µM, a GI50 [45] of 5.48 µM and a TGI [45] of 16.3 µM. The GI50 [46] was 2.81 µM, the TGI [46] was 8.39 µM and the GI50 [47] was 1.11 µM. It also gave a TGI [47] of 2.46 µM, a GI50 [48] of 2.56 µM and a TGI [48] of 6.22 µM. The GI50 [49] was 3.02 µM, the TGI [49] was 13.7 µM and the GI50 [50] was 13.5 µM. It also gave a TGI [50] of 27.1 µM, a GI50 [51] of 3.82 µM and a TGI [51] of 18 µM. The GI50 [52] was 2.37 µM, the TGI [52] was 5.41 µM and the GI50 [53] was 3.56 µM. For the same compound, the TGI [53] was 14.1 µM, the GI50 [54] was 2.01 µM and the TGI [54] was 4.37 µM. It also gave a GI50 [55] of 1.81 µM, a TGI [55] of 3.41 µM and a GI50 [56] of 2.27 µM. For the same compound, the TGI [56] was 5 µM, the GI50 [57] was 1.46 µM and the TGI [57] was 2.87 µM.
In the case of `O=C(Nc1cccc(-n2cc(-c3ccncc3)c(-c3ccc(Cl)c(O)c3)n2)c1)Nc1cccc(C(F)(F)F)c1`, the GI50 [1] is reported as 1.81 µM, the TGI [1] is reported as 20.1 µM and the GI50 [2] is reported as 0.962 µM. It also gave a TGI [2] of 4.26 µM, a GI50 [3] of 4.34 µM and a TGI [3] of 19.1 µM. The GI50 [58] was 1.92 µM, the TGI [58] was greater than 32.5 µM and the GI50 [5] was 1.82 µM. The TGI [5] was 20 µM, the GI50 [6] was 1.37 µM and the TGI [6] was greater than 32.5 µM. It also gave a GI50 [7] of 1.45 µM, a TGI [7] greater than 32.5 µM and a GI50 [8] of 1.3 µM. It also gave a TGI [8] of 4.71 µM, a GI50 [9] of 6.86 µM and a TGI [9] greater than 32.5 µM. It also gave a GI50 [10] of 9.82 µM, a TGI [10] greater than 32.5 µM and a GI50 [11] of 4.69 µM. For the same compound, the TGI [11] was greater than 32.5 µM, the GI50 [12] was 1.39 µM and the TGI [12] was 8.26 µM. For the same compound, the GI50 [13] was 1.33 µM, the TGI [13] was greater than 32.5 µM and the GI50 [14] was 2.47 µM. For the same compound, the TGI [14] was greater than 32.5 µM, the GI50 [15] was 2.01 µM and the TGI [15] was greater than 32.5 µM. For the same compound, the GI50 [16] was 2.53 µM, the TGI [16] was 9.58 µM and the GI50 [17] was 0.948 µM. For the same compound, the TGI [17] was 22.4 µM, the GI50 [18] was 1.4 µM and the TGI [18] was 10.8 µM. For the same compound, the GI50 [19] was 7.9 µM, the TGI [19] was 23.8 µM and the GI50 [20] was 2.14 µM. It also gave a TGI [20] greater than 32.5 µM, a GI50 [21] of 1.51 µM and a TGI [21] greater than 32.5 µM. It also gave a GI50 [22] of 2.24 µM, a TGI [22] greater than 32.5 µM and a GI50 [23] of 1.9 µM. It also gave a TGI [23] greater than 32.5 µM, a GI50 [24] of 2.12 µM and a TGI [24] greater than 32.5 µM. For the same compound, the GI50 [25] was 1.29 µM, the TGI [25] was greater than 32.5 µM and the GI50 [26] was 1.46 µM. It also gave a TGI [26] of 14.5 µM, a GI50 [27] of 1.49 µM and a TGI [27] of 12.6 µM. It also gave a GI50 [28] of 3.65 µM, a TGI [28] greater than 32.5 µM and a GI50 [29] of 4.97 µM. It also gave a TGI [29] greater than 32.5 µM, a GI50 [30] of 1.06 µM and a TGI [30] of 6.13 µM. For the same compound, the GI50 [31] was 3.31 µM, the TGI [31] was greater than 32.5 µM and the GI50 [32] was 1.75 µM. For the same compound, the TGI [32] was greater than 32.5 µM, the GI50 [33] was 1.34 µM and the TGI [33] was greater than 32.5 µM. For the same compound, the GI50 [34] was 1.59 µM, the TGI [34] was 7.65 µM and the GI50 [35] was 3.54 µM. The TGI [35] was 11.6 µM, the GI50 [36] was 1.65 µM and the TGI [36] was 6.91 µM. For the same compound, the GI50 [37] was 1.44 µM, the TGI [37] was greater than 32.5 µM and the GI50 [38] was 2.02 µM. For the same compound, the TGI [38] was 10.8 µM, the GI50 [39] was 3.02 µM and the TGI [39] was 12 µM. The GI50 [40] was 1.34 µM, the TGI [40] was greater than 32.5 µM and the GI50 [41] was 6.51 µM. For the same compound, the TGI [41] was 21.4 µM, the GI50 [42] was 1.4 µM and the TGI [42] was greater than 32.5 µM. It also gave a GI50 [43] of 1.86 µM, a TGI [43] greater than 32.5 µM and a GI50 [44] of 1.95 µM. It also gave a TGI [44] of 15.8 µM, a GI50 [45] of 1.91 µM and a TGI [45] greater than 32.5 µM. The GI50 [46] was 13.7 µM, the TGI [46] was greater than 32.5 µM and the GI50 [47] was 1.18 µM. For the same compound, the TGI [47] was 29 µM, the GI50 [48] was 7.26 µM and the TGI [48] was greater than 32.5 µM. The GI50 [49] was 0.509 µM, the TGI [49] was 2.23 µM and the GI50 [50] was 4.11 µM. The TGI [50] was greater than 32.5 µM, the GI50 [51] was 1.57 µM and the TGI [51] was greater than 32.5 µM. For the same compound, the GI50 [52] was 3.59 µM, the TGI [52] was 26.8 µM and the GI50 [53] was 7.35 µM. For the same compound, the TGI [53] was greater than 32.5 µM, the GI50 [54] was 3.18 µM and the TGI [54] was greater than 32.5 µM. It also gave a GI50 [55] of 1.76 µM, a TGI [55] greater than 32.5 µM and a GI50 [56] of 1.64 µM. The TGI [56] was greater than 32.5 µM, the GI50 [57] was 3.82 µM and the TGI [57] was greater than 32.5 µM.
